Each structure is given as a SMILES string.

This experiment deals with MCH receptor (Homo sapiens, UniProt Q99705). The experiment in a line: Receptor binding assay with Radiolabelled MCH Ligand. Conditions: class by percent of control at 10^-7 M or IC50. The arrangement: expressed in transfected cells; host or cells: 293 cells (human kidney, ATCC), transient transfection; crude membranes. The method in brief: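 Membranes from 293 cells transiently transfected with human MCH receptor competed test compounds against a radiolabelled MCH ligand in Tris-HCl pH 7.4 with MgCl2 and EDTA for 60–120 min at room temperature. Filtration and scintillation counting followed, with cold MCH defining nonspecific binding. IC50 came from logit-log plots of %B/B0, and Ki from the Cheng-Prusoff equation.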
Chain of MCH receptor (Q99705 whole entry): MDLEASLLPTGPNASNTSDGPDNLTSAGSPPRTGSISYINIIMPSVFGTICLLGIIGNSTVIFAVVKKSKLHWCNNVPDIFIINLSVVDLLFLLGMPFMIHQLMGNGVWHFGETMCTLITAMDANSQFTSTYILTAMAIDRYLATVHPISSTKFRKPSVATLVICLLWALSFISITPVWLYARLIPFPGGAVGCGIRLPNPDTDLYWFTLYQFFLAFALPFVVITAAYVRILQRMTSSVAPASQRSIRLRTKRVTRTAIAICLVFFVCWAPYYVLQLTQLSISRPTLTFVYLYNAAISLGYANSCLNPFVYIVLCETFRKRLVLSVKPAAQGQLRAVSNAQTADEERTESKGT

With `Cc1nc(N[C@H]2CC[C@@H](NC(=O)c3ccno3)CC2)cc(N(C)C)n1` [compound 223], the class is on record as 3 (Class 3: The value of percent of control at 10^−7 M was more than 60% or the value of IC50 was more than 200 nM.).
Next, `Cc1nc(N[C@H]2CC[C@@H](NC(=O)CCCCc3cccs3)CC2)cc(N(C)C)n1` [compound 316]: 3 (Class 3: The value of percent of control at 10^−7 M was more than 60% or the value of IC50 was more than 200 nM.); `Cc1nc(N[C@H]2CC[C@@H](NC(=O)c3ccc4c(c3)C(=O)c3ccccc3C4=O)CC2)cc(N(C)C)n1` [compound 198]: 3 (Class 3: The value of percent of control at 10^−7 M was more than 60% or the value of IC50 was more than 200 nM.); `Cc1nc(N[C@H]2CC[C@@H](NC(=O)c3ccc(OC(F)(F)F)cc3)CC2)cc(N(C)C)n1` [compound 248]: 3 (Class 3: The value of percent of control at 10^−7 M was more than 60% or the value of IC50 was more than 200 nM.).
Next, `Cc1nc(N[C@H]2CC[C@@H](NC(=O)c3c(-c4c(F)cccc4Cl)noc3C)CC2)cc(N(C)C)n1` [compound 215, 3-(2-chloro-6-fluorophenyl)-N-(cis-4-{[6-(dimethylamino)-2-methylpyrimidin-4-yl]amino}cyclohexyl)-5-methylisoxazole-4-carboxamide]: 1 (Class 1: The value of percent of control at 10^−7 M was less than 40% or the value of IC50 was less than 50 nM.).
Next, `Cc1nc(N[C@H]2CC[C@@H](NC(=O)CC(C)C(F)(F)F)CC2)cc(N(C)C)n1` (relative stereo) [compound 314]: 3 (Class 3: The value of percent of control at 10^−7 M was more than 60% or the value of IC50 was more than 200 nM.).
Regarding `Cc1nc(N[C@H]2CC[C@@H](NS(=O)(=O)c3cccc([N+](=O)[O-])c3)CC2)cc(N(C)C)n1` [compound 504], the class is listed as 3 (Class 3: The value of percent of control at 10^−7 M was more than 60% or the value of IC50 was more than 200 nM.).
Take `Cc1nc(N[C@H]2CC[C@@H](NC(=O)c3ccc(I)o3)CC2)cc(N(C)C)n1` [compound 285, N-(cis-4-{[6-(dimethylamino)-2-methylpyrimidin-4-yl]amino}cyclohexyl)-5-iodo-2-furamide]: the class is recorded as 3 (Class 3: The value of percent of control at 10^−7 M was more than 60% or the value of IC50 was more than 200 nM.).
As for `Cc1nc(N[C@H]2CC[C@@H](NC(=O)Cc3ccccc3C(=O)Nc3ccc(C(C)C)cc3)CC2)cc(N(C)C)n1` [compound 296], the figure is 3 (Class 3: The value of percent of control at 10^−7 M was more than 60% or the value of IC50 was more than 200 nM.); as for `Cc1nc(N[C@H]2CC[C@@H](NCc3ccc(F)cc3)CC2)cc(N(C)C)n1` [compound 372], 3 (Class 3: The value of percent of control at 10^−7 M was more than 60% or the value of IC50 was more than 200 nM.).
As for `Cc1nc(N[C@H]2CC[C@@H](NC(=O)OCc3ccc([N+](=O)[O-])cc3)CC2)cc(N(C)C)n1` [compound 460], the figure is 3 (Class 3: The value of percent of control at 10^−7 M was more than 60% or the value of IC50 was more than 200 nM.); as for `Cc1nc(N[C@H]2CC[C@@H](NC(=O)/C=C/c3ccc([N+](=O)[O-])cc3)CC2)cc(N(C)C)n1` [compound 263], 3 (Class 3: The value of percent of control at 10^−7 M was more than 60% or the value of IC50 was more than 200 nM.); as for `Cc1nc(N[C@H]2CC[C@@H](NC(=O)c3ccccc3-c3ccc(C(F)(F)F)cc3)CC2)cc(N(C)C)n1` [compound 307], 3 (Class 3: The value of percent of control at 10^−7 M was more than 60% or the value of IC50 was more than 200 nM.).
As for `Cc1nc(N[C@H]2CC[C@@H](NCc3cc(C(C)(C)C)nn3Cc3ccc(Cl)cc3Cl)CC2)cc(N(C)C)n1` [compound 409], the figure is 3 (Class 3: The value of percent of control at 10^−7 M was more than 60% or the value of IC50 was more than 200 nM.).
With `Cc1nc(N[C@H]2CC[C@@H](NS(=O)(=O)/C=C/c3ccccc3)CC2)cc(N(C)C)n1` [compound 471], the class is 3 (Class 3: The value of percent of control at 10^−7 M was more than 60% or the value of IC50 was more than 200 nM.).
As for `Cc1nc(N[C@H]2CC[C@@H](NC(=O)CC3Cc4ccccc4C3)CC2)cc(N(C)C)n1` [compound 339], the figure is 3 (Class 3: The value of percent of control at 10^−7 M was more than 60% or the value of IC50 was more than 200 nM.).
Next, `Cc1nc(N[C@H]2CC[C@@H](NC(=O)CC3=CCCCC3)CC2)cc(N(C)C)n1` [compound 278]: 3 (Class 3: The value of percent of control at 10^−7 M was more than 60% or the value of IC50 was more than 200 nM.); `Cc1nc(N[C@H]2CC[C@@H](NC(=O)Oc3ccc4ccccc4c3)CC2)cc(N(C)C)n1` [compound 461]: 3 (Class 3: The value of percent of control at 10^−7 M was more than 60% or the value of IC50 was more than 200 nM.); `Cc1nc(NC2CCC(NC(=O)C(Cc3ccccc3)NS(=O)(=O)c3cccc4ccccc34)CC2)cc(N(C)C)n1` (stereo not drawn) [compound 260]: 3 (Class 3: The value of percent of control at 10^−7 M was more than 60% or the value of IC50 was more than 200 nM.).
Next, `Cc1nc(N[C@H]2CC[C@@H](NC(=O)c3cccc(C(F)(F)F)c3)CC2)cc(N(C)C)n1` [compound 241, N-(cis-4-{[6-(dimethylamino)-2-methylpyrimidin-4-yl]amino}cyclohexyl)-3-(trifluoromethyl)benzamide]: 3 (Class 3: The value of percent of control at 10^−7 M was more than 60% or the value of IC50 was more than 200 nM.).
As to `Cc1nc(N[C@H]2CC[C@@H](NC(=O)c3cnn(C)c3Cl)CC2)cc(N(C)C)n1` [compound 272], the class was 3 (Class 3: The value of percent of control at 10^−7 M was more than 60% or the value of IC50 was more than 200 nM.).
As for `Cc1nc(N[C@H]2CC[C@@H](NS(=O)(=O)c3cccc4c(N(C)C)cccc34)CC2)cc(N(C)C)n1` [compound 490], the figure is 3 (Class 3: The value of percent of control at 10^−7 M was more than 60% or the value of IC50 was more than 200 nM.); as for `Cc1nc(N[C@H]2CC[C@@H](NCc3cccc(C(F)(F)F)c3)CC2)cc(N(C)C)n1` [compound 386], 3 (Class 3: The value of percent of control at 10^−7 M was more than 60% or the value of IC50 was more than 200 nM.); as for `Cc1nc(N[C@H]2CC[C@@H](NC(=O)Cc3ccc(OCc4ccccc4)cc3)CC2)cc(N(C)C)n1` [compound 204], 3 (Class 3: The value of percent of control at 10^−7 M was more than 60% or the value of IC50 was more than 200 nM.).
Next, `Cc1nc(N[C@H]2CC[C@@H](NCc3ccc(OC(F)(F)F)cc3)CC2)cc(N(C)C)n1` [compound 393]: 3 (Class 3: The value of percent of control at 10^−7 M was more than 60% or the value of IC50 was more than 200 nM.).
Take `Cc1nc(N[C@H]2CC[C@@H](NC(=O)C3CCCC3)CC2)cc(N(C)C)n1` [compound 253, N-(cis-4-{[6-(dimethylamino)-2-methylpyrimidin-4-yl]amino}cyclohexyl)cyclopentanecarboxamide]: the class is 3 (Class 3: The value of percent of control at 10^−7 M was more than 60% or the value of IC50 was more than 200 nM.).
Next, `Cc1nc(N[C@H]2CC[C@@H](NC(=O)c3ccc4cc5ccccc5cc4c3)CC2)cc(N(C)C)n1` [compound 333]: 3 (Class 3: The value of percent of control at 10^−7 M was more than 60% or the value of IC50 was more than 200 nM.); `Cc1nc(N[C@H]2CC[C@@H](NCc3scc(S(=O)(=O)c4ccc(Cl)cc4)c3C)CC2)cc(N(C)C)n1` [compound 367]: 3 (Class 3: The value of percent of control at 10^−7 M was more than 60% or the value of IC50 was more than 200 nM.); `CCSC(C(=O)N[C@H]1CC[C@@H](Nc2cc(N(C)C)nc(C)n2)CC1)(c1ccccc1)c1ccccc1` [compound 306, N-(cis-4-{[6-(dimethylamino)-2-methylpyrimidin-4-yl]amino}cyclohexyl)-2-(ethylthio)-2,2-diphenylacetamide]: 1 (Class 1: The value of percent of control at 10^−7 M was less than 40% or the value of IC50 was less than 50 nM.).
Regarding `Cc1nc(N[C@H]2CC[C@@H](NC(=O)COc3ccc(Cl)cc3)CC2)cc(N(C)C)n1` [compound 209], the class is 3 (Class 3: The value of percent of control at 10^−7 M was more than 60% or the value of IC50 was more than 200 nM.).
As for `Cc1nc(N[C@H]2CC[C@@H](NS(=O)(=O)c3cccc(C(F)(F)F)c3)CC2)cc(N(C)C)n1` [compound 483], the figure is 3 (Class 3: The value of percent of control at 10^−7 M was more than 60% or the value of IC50 was more than 200 nM.); as for `Cc1ccc(C(=O)N[C@H]2CC[C@@H](Nc3cc(N(C)C)nc(C)n3)CC2)cc1` [compound 242], 3 (Class 3: The value of percent of control at 10^−7 M was more than 60% or the value of IC50 was more than 200 nM.); as for `Cc1nc(N[C@H]2CC[C@@H](NS(=O)(=O)C(C)C)CC2)cc(N(C)C)n1` [compound 479], 3 (Class 3: The value of percent of control at 10^−7 M was more than 60% or the value of IC50 was more than 200 nM.).
As for `Cc1nc(N[C@H]2CC[C@@H](NC(=O)c3ccc(S(C)(=O)=O)s3)CC2)cc(N(C)C)n1` [compound 346], the class is 3 (Class 3: The value of percent of control at 10^−7 M was more than 60% or the value of IC50 was more than 200 nM.).
As for `Cc1nc(N[C@H]2CC[C@@H](NCC3CCCCC3)CC2)cc(N(C)C)n1` [compound 363], the figure is 3 (Class 3: The value of percent of control at 10^−7 M was more than 60% or the value of IC50 was more than 200 nM.).
As for `Cc1nc(N[C@H]2CC[C@@H](NS(=O)(=O)Cc3ccc(Cl)c(Cl)c3)CC2)cc(N(C)C)n1` [compound 473], the figure is 3 (Class 3: The value of percent of control at 10^−7 M was more than 60% or the value of IC50 was more than 200 nM.).

The record behind these values is patent publication US20090036448A1, “PYRIMIDINE DERIVATIVES AND METHODS OF TREATMENT RELATED TO THE USE THEREOF” (TAISHO PHARMECUTICAL CO., LTD., priority 2004, published 2009).
